One assay has as its system HO-1. As to the kind of experiment: Western blot of HO-1 expression in cultured endothelial cells. The assay is classed as cell-based, mouse. To be noted: data not shown. Here is the method:
Endothelial cells were washed in PBS (pH 7.2), harvested by scraping, and lysed in Laemmli buffer. Electrophoresis was conducted under denaturing conditions with 10% polyacrylamide gels. Proteins were transferred onto a polyvinyldifluoridine membrane (immobilon P; Millipore, Bedford, Mass.) by electroblotting and detected with rabbit polyclonal Abs directed against human HO-1 or HO-2 (StressGen, Victoria, Canada) or é-tubulin (Boehringer Mannheim, Mannheim, Germany). Proteins were visualized by using HRP-conjugated donkey anti-rabbit IgG or goat anti-mouse IgG (Pierce) and the ECL assay (Amersham Life Science, Arlington Heights, Ill.) according to manufacturer's instructions.
(Immunoblotting shows a protein as a band on a membrane.)

In another assay the test system is 2F–2B ECs. The assay is classed as cell-based, murine. How it is done:
The murine 2F–2B endothelial cell line (ATCC) was transiently transfected as described elsewhere (Soares et al., Nature Med. 4:1073, 1998; Brouard et al, J. Exp. Med. 192:1015, 2000). All experiments were conducted 24–48 h after transfection. é-galactosidase-transfected cells were detected as described elsewhere (Soares et al., Nature Med. 4:1073, 1998; Brouard et al., J. Exp. Med. 192:1015, 2000). Percentage of viable cells was assessed by evaluating the number of é-galactosidase-expressing cells that retained normal morphology as described elsewhere (Soares et al., Nature Med. 4:1073, 1998; Brouard et al., J. Exp. Med. 192:1015, 2000). The number of random fields counted was determined to have a minimum of 200 viable transfected cells per control well. The percentage of viable cells was normalized for each DNA preparation to the number of transfected cells counted in the absence of the apoptosis-inducing agent (100% viability). All experiments were performed at least three times in duplicate. Actinomycin D (Act. D; Sigma) was dissolved in PBS and added to the culture medium (10 îg/ml) 24 h after transfection. SnPPIX (Porphyrin Products) was dissolved (10 îM) in 100 mM NaOH and conserved at −20° C. until used. SNPPIX was added to the culture medium (50 îM) 6 h after transfection. Human recombinant TNF-α (R&D Systems, Minneapolis, Minn.) was dissolved in PBS, 1% BSA, and added to the culture medium (10–100 ng/ml) 24 h after transfection.
Cells were exposed to compressed air or varying concentration of CO (250 and 10,000 ppm), as described elsewhere (Otterbein et al., Nature Med. 6:422, 2000; and Brouard et al., J. Exp. Med. 192:1015, 2000).
BAECs and 2F–2B ECs were transiently transfected. All experiments were carried out 24–48 h after transfection. The percentage of viable cells was assessed by evaluating the number of β-galactosidase-expressing cells that retained normal morphology. The number of random fields counted was determined to have a minimum of 200 viable transfected cells per control well. The percentage of viable cells was normalized for each DNA preparation to the number of transfected cells counted in the absence of the apoptosis-inducing agent (100% viability). All experiments were performed at least three times in duplicate.
Actinomycin D (Act.D; Sigma-Aldrich) was dissolved in PBS and added to the culture medium 24 h after transfection. The Act.D concentration used corresponded to the optimal concentration necessary to sensitize ECs to TNF-α mediated apoptosis, e.g., 10 μg/ml for 2F–2B ECs and 0.1 μg/ml for BAECs. When indicated, EC apoptosis was induced by etoposide (200 μM, 8 h; Calbiochem-Novabiochem) or by serum deprivation (0.1% FCS for 24 h). The iron chelator deferoxamine mesylate (DFO; Sigma-Aldrich) was dissolved in water and added to culture medium (1–100 μM) 1 h before the induction of apoptosis. Hemoglobin (Hb; Sigma-Aldrich) was dissolved (1 mM) in PBS, 10 mM Na2S2O4, dialyzed against PBS (2 h, 4° C., 1:800 dilution), and added to the culture medium (1–100 μM) 6 h after transfection. The guanylcyclase inhibitor 1H(1,2,4)oxadiazolo(4,3)quinoxalin-1 (ODQ; Calbiochem-Novabiochem) was dissolved in DMSO (Sigma-Aldrich) and added to the culture medium (10–100 μM) 6 h after transfection. Iron protoporphyrin ([FePP]/heme), cobalt protoporphyrin (CoPPIX), and tin protoporphyrin (SnPPIX; all from Porphyrin Products, Inc.) were dissolved (10 mM) in 100 mM NaOH and held at −20° C. until use. Metalloporphyrins were added to the culture medium (50 μM) 6 h after transfection. The cGMP analogue 8-bromo-cGMP sodium salt (8-Br-cGMP; Sigma-Aldrich) was dissolved in water and added to the culture medium (10–100 µM) 30 min before the induction of apoptosis. Human recombinant TNF- (R&D Systems) was dissolved in PBS and 1% BSA, and added to the culture medium (10–100 ng/ml) 24 h after transfection.
Cells were exposed to compressed air from a compressed air tank or varying concentrations of CO (250 and 10,000 ppm).

In assay [1] the test system is rat platelets overlaid on mouse 2F–2B endothelial cells. As to the kind of experiment: Platelet aggregation assay, platelets overlaid on pretreated endothelial cells. The assay is classed as cell-based. The note with it: endothelial cells pretreated with protoporphyrin 50 μM; ADP 2 μM. How it is done: Mouse 2F–2B endothelial cells were cultured on 0.2% gelatin (Sigma) coated six-well plates in 88% DMEM (Life Technologies), 10% FCS (FCS), 100 U/ml penicillin, and 100 îg/ml streptomycin (Life Technologies). Confluent endothelial cells either were left untreated or were treated with the HO-inducing agent CoPPIX (50 îM; 18 h), the HO inhibitor SnPPIX (50 îM, 18 h), or both CoPPIX (50 îM, 15 h) and SnPPIX (50 îM, 3 h). Platelet-rich plasma was obtained by centrifugation (290-g, 12 min, 19° C.) of normal rat […] in 3.8% sodium citrate. Rat platelets (3–10^8 cells ml) were resuspended in HT buffer (8.9 mM NaHCO3, 0.8 mM KH2PO, 5.6 mM dextrose, 2.8 mM KCl solution, 0.8 mM MgCl2, 129 mM NaCl, 10 mM HEPES). Platelets were overlaid (5 min; 37° C.) on mouse endothelial cells, and platelet aggregation assays were conducted as described before (Kaczmarek et al, J. Biol. Chem. 271:33116, 1996) by using an aggregometer (Chrono-Log, Harestown, Pa.) and ADP (0.5–4 μM) as an agonist.

The next assay concerns islet cell grafts. Nature of the assay: Islet graft survival after induction of HO-1 by CoPP in donors and recipients. The format is in vivo, mouse. To be noted: 350–400 islets; for Rejection day: individual recipients. How it is done:
Whether induction of HO-1 in donors and recipients would protect islet cell grafts was investigated. The following procedures were utilized to generate the data illustrated in Table 1, below. A mouse model was utilized for the experiments. Donors of islet cells were treated with cobalt protoporphyrin (CoPP) (20 mg/kg) once per day before islet cell isolation. Recipients of islet cell grafts were treated with CoPP (20 mg/kg) once per day on days 1, 3, 5, 7 or with CoPP (10 mg/kg) once per day on days 1, 3, 5, 7, 9, 11, 13, 15, and 17. Treatment with CoPP induces expression of heme oxygenase-1 (HO-1).
Listed under “rejection day” are the days to which islets survived. For instance, “>51×2”, means that islets in 2 recipients were still surviving after 51 days. The mean date of rejection is shown in the fourth column.

The test system of another assay is βTC3 cells. As to the kind of experiment: TNF-α mediated apoptosis of β-gal transfected βTC3 cells (percentage of viable cells). The assay is classed as cell-based, murine. The note with it: for inhibition of TNF-α mediated apoptosis: TNF-α 24 hours, inhibitor added two hours before TNF-α (Z-DEVD-FMK 10 μM, IETD-CHO 1 μM). How it is done:
The murine insulinoma cell line βTC3 (DSMZ, Braunschweig, Germany) was cultured in Dulbecco's Modified Eagle's Medium (DMEM) (Life Technologies, Grand Island, N.Y., USA) supplemented with 2 mM L-glutamine, 100 U/ml penicillin G, 100 U/ml streptomycin and 10% Fetal Calf Serum (FCS) (Life Technologies) and incubated in humidified 5% CO2/95% air at 37° C. This murine β-cell line, derived from transgenic mice carrying a hybrid insulin-promoter simian virus 40 tumor antigen, is known to maintain the features of differentiated β-cells for about 50 passages in culture. […] Compared to other frequently used transformed β-cell lines such as RIN-m5F and HIT, levels of secreted insulin are closer to normal β-cells in the βTC3 cell line. Thus, these cells are useful for studying β-cell regulation and gene expression (D'Ambra et al., Endocrinology 726:2815–22, 1990).
βTC3 were seeded at 3×10^5 cells in 16 mm wells and transfected 15 to 20 hours later using Lipofectamine plus™ reagents (Life Technologies) according to the manufacturer's instructions. Total DNA was maintained constant using empty pcDNA3 vector. The percentage of viable cells was assessed by normalizing the percentage of viable cells of each DNA preparation to the number of control-transfected cells without the apoptotic stimulus (100% viability) (Soares et al., Nature Med. 4:1073–1077, 1998; Sato et al., J. Immunol. 166:4185–4194, 2001).
Murine recombinant TNF-α (R&D Systems) was dissolved in PBS with 1% bovine serum albumin and added to the culture medium (17.5 ng/ml=500 U) 24 hours after transfection. The caspase-3 inhibitor Z-DEVD-FMK and the caspase-8 inhibitor IETD-CHO (Calbiochem, San Diego, Calif.) were dissolved in dimethyl sulphoxide (DMSO, Sigma) and added to the culture medium (10 μM and 1 μM respectively) two hours before treatment with TNF-α. Tin protoporphyrin (SnPPIX) (Porphyrin Products, Logan, Utah) was dissolved (10 mM) in 100 mM NaOH and added 6 hours after transfection to the culture medium (50 μM). The guanylyl cyclase inhibitor 1H[1,2,4]oxadiazolo[4,3-α]quinoxalin-1 (ODQ; Calbiochem) was dissolved in DMSO and added to the culture medium (100 μM) 6 hours after transfection. The cGMP analogue 8-bromoguanosine-3′-5′-cyclic-monophosphate (8-Br-cGMP) (Sigma) was dissolved in water and added to the culture medium (10 μM) 30 minutes before induction of apoptosis. The protein kinase G inhibitor KT5823 (Calbiochem) was dissolved in DMSO and added to the culture medium (1.6 μM) 6 hours after transfection.
Cells and islets were exposed to 1% carbon monoxide in compressed air balanced with 5% CO2, as described elsewhere (see, e.g., Otterbein et al., Nature Med. 6:422–428, 2000). Islets were incubated in RPMI medium pre-saturated with carbon monoxide (4° C. overnight, 1% CO, 5% CO2) for two hours at 37° C. while treatment with 1% CO, 5% CO2 was continued.

Molecules are shown by their SMILES. Where “and” joins values, the source holds several entries; their conditions need not be identical. Equal entries are not always repeated. Structures can show the parent of a compound that is named as a salt. Residues, ends and D or L forms follow the SMILES beside them.

This note sets out measurements from US7238469B2, “Carbon monoxide improves outcomes in tissue and organ transplants and suppresses apoptosis” (priority 2001, dated 2007).

In the case of `C=CC1=C(C)c2cc3[n-]c(cc4nc(cc5[n-]c(cc1n2)c(C)c5CCC(=O)[O-])C(CCC(=O)[O-])=C4C)c(C)c3C=C.[Co+2].[H+].[H+]` [CoPP, cobalt protoporphyrin], in the assay with HO-1, the “expression of HO-1 in cultured endothelial cells” value is given as “up-regulated the expression of HO-1”. For the same compound, in the assay with 2F–2B ECs (HO-1 transfected ECs, protoporphyrin 50 μM), the “effect of protoporphyrin on the antiapoptotic effect of HO-1” value was “did not suppress the antiapoptotic effect of HO-1 or that of bcl-2”. The “platelet aggregation on stimulation by ADP” value in assay [1] is recorded as “platelet aggregation was significantly inhibited”. Moreover, in the assay on islet cell grafts (CoPP 10 mg/kg × 10), the “Rejection day Mean ± SD” value came to 40.5 ± 12.12 days, the Rejection/Total was 2/4 and the Rejection day was above 51 days. In the assay with islet cell grafts (CoPP 20 mg/kg × 5), the “Rejection day Mean ± SD” value is 44.85 ± 17.81 days; the Rejection/Total was 4/7; the Rejection day was >58 × 2, day and >67 × 1 day.
Turning to `CC(=O)N(O)CCCCCNC(=O)CCC(=O)N(O)CCCCCNC(=O)CCC(=O)N(O)CCCCCN` [DFO, deferoxamine mesylate], the “effect on EC apoptosis when HO-1 activity was inhibited by SnPPIX or the action of CO suppressed by Hb” value in the assay on 2F–2B ECs (DFO) is “still able to prevent EC apoptosis”. Also, the “effect on EC apoptosis under inhibition of HO activity by SnPPIX” value in the assay with 2F–2B ECs (DFO 100 μM alone) is “suppressed EC apoptosis, but to a lesser extent than HO-1”. The “effect on EC apoptosis induced by TNF-α plus Act.D” value in the assay on 2F–2B ECs (DFO 1–100 μM) was “suppressed”.
As to `CC[C@H](C)[C@H](NC(C)=O)C(=O)N[C@@H](CCC(=O)O)C(=O)N[C@H](C(=O)N[C@H](C=O)CC(=O)O)[C@@H](C)O` [IETD-CHO] (Ac-IETD-aldehyde), in the assay on βTC3 cells, the “inhibition of TNF-α mediated apoptosis” value turned out to be 96%.
Turning to `COC(=O)[C@@]1(OC)C[C@H]2O[C@]1(C)n1c3ccccc3c3c4c(c5c6ccccc6n2c5c31)C(=O)N(C)C4` [KT5823], the “effect on the anti-apoptotic effect of exogenous CO” value in the assay with βTC3 cells (TNF-α, 1% CO, ODQ 100 μM, KT5823 1.6 μM) is given as “suppressed the anti-apoptotic effect of exogenous carbon monoxide”.
On to `C[S+]([O-])c1ccc(-c2nc(-c3ccncc3)c(-c3ccc(F)cc3)[nH]2)cc1` (stereo not shown) [SB203580], for which, in the assay with 2F–2B ECs (SB203580 10–20 μM, dose dependent), the “effect on the antiapoptotic action of HO-1” value is recorded as “antiapoptotic action of HO-1 is suppressed”.
In the case of `COC(=O)CC[C@H](NC(=O)[C@H](CC(=O)OC)NC(=O)OCc1ccccc1)C(=O)N[C@H](C(=O)N[C@@H](CC(=O)OC)C(=O)CF)C(C)C` [Z-DEVD-FMK], the “inhibition of TNF-α mediated apoptosis” value in the assay with βTC3 cells is on record as 53%.
